Patent US20240307409A1, “ARGININE METHYLTRANSFERASE INHIBITOR AND USE THEREOF” (Cytosinlab Therapeutics Co., Ltd., priority 2021, published 2024)

Columns and labels:
MMA in RKO cells = assay: RKO In Cell Western assay (MMA primary antibody); format: cell-based; settings: Homo sapiens, 72 hours, read-out: RKO ICW_EC30
Procedure: RKO was seeded at a concentration of 20,000 cells/ml into a polylysine-coated 96-well plate (Corning #3599), with 2,000 cells per well and 100 μL of culture mediumper well. 500 nL of compound was added to the 96-well plate. 3) The 96-well plate was incubated in a 37° C., 5% CO2 incubator for 72 hours. After three days, the 96-well plate was taken from the incubator, 100 μL of 8% paraformaldehyde solution was added to each well, and the plate was placed at room temperature for 15 min. After 15 min, the liquid in the plate was shaken out and the plate was washed three times with phosphate buffer (1*PBS). The liquid in the plate was shaken out and 200 μL of membrane-breaking buffer (0.1% (v/v) Tween-20 in PBS) was added and the plate was incubated on a shaker for 30 min. After half an hour, the liquid in the plate was shaken out, and blocking buffer was added and the plate was incubated for two hours at room temperature with shaking. After that, the liquid in the plate was shaken off, and the blocking solution containing primary antibody (MMA primary antibody, CST #8711S, 1:1000 v/v) was added to the 96-well plate and the plate was incubated at 4° C. overnight with shaking. The next day, the plate was washed three times with washing solution (0.05% (v/v) Tween-20 in PBS), and a blocking solution containing secondary antibody (goat anti-rabbit IgG (H+L) Invitrogen #31460, 1:10,000 v/v) was added and the plate was incubated for two hours at room temperature. Afterwards, the 96-well plate was washed four times with washing solution. The TMB mixture was added to the 96-well plate and then the plate was incubated for 15 minutes at room temperature with shaking. After that, the reaction terminating solution was added, and the value was read at OD450 nm using an microplate reader. The plate was washed three times with washing solution, and 50 μL of janusgreen staining solution was added, and the plate was incubated for 15 minutes at room temperature with shaking. The reaction was washed ten times with water until no color residue was left. 200 μL of 0.5 M hydrochloric acid solution was added to each well and the plate was incubated for 10 min at room temperature. The value was read at OD595 nm using Flexstation.
Firstly, the ratio OD450/OD595 was calculated for each well
Each plate had six DMSO negative control groups (ZPE) and six 10 μM positive control groups (HPE), and the average of the control group ratios was used to determine the percentage of activation for each test well. The compounds to be tested were triple diluted with DMSO for a total of 8 concentration points with a starting concentration of 5 μM. The equation for calculating the activation percentage of each test well was: […]

PRMT1 = PRMT1 (Homo sapiens, UniProt Q99873); assay: PRMT1 enzyme activity test; format: biochemical; settings: 0.5 nM PRMT1, 3H-SAM, peptide
Sequence of PRMT1 (Q99873 whole entry): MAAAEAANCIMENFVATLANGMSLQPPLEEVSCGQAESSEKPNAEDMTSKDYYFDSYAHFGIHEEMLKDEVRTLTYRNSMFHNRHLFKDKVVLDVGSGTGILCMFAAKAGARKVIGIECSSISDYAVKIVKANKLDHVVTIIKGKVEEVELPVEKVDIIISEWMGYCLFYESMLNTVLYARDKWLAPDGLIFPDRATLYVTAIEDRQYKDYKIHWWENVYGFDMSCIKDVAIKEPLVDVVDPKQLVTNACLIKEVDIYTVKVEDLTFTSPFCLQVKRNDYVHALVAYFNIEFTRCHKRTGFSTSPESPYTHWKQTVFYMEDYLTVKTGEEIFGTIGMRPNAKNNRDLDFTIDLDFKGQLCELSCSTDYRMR
Procedure, shortened: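 Radiometric methylation assay: 0.5 nM PRMT1 preincubated 15 min at room temperature with compound (10-point 3-fold series, 1% DMSO) in pH 8.0 Tris buffer with Tween-20 and DTT. 0.25 uM ³H-SAM and 0.1 uM biotinylated peptide then reacted 120 min. Product captured on streptavidin FlashPlate and counted; IC50 from four-parameter fit of % inhibition.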

Toledo cells = assay: Toledo cell proliferation inhibition assay; format: cell-based; settings: Homo sapiens, Toledo, 144 h; six-day assay, CellTiter-Glo
Procedure, shortened: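 Toledo cells seeded at 2000 cells/well in RPMI 1640 + 10% FBS and incubated with compound for six days at 37° C, 5% CO2. Viability was then read by CellTiter-Glo luminescence after 30 min orbital mixing.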

Structure (SMILES) | IC50 (PRMT1) [nM] | EC30 (MMA in RKO cells) [nM] | IC50 (Toledo cells) [nM]
CNCCN(C)Cc1cc(F)ccc1C1CCc2ccc(C(F)(F)F)cc2CC1 (centres unmarked) [P001] | < 50 | 250 to 2500 | < 1000
CNCCN(C)Cc1ccc(F)cc1[C@H]1CC[C@H](c2cccc(C)c2)CC1 [P003] | < 50 | < 250 | < 1000
CNCCN(C)Cc1cc(F)ccc1[C@H]1CC[C@H](c2cccc(C)c2)CC1 [P005] | < 50 | 250 to 2500 | < 1000
CNCCN(C)Cc1ccc(F)cc1C1CCc2cc(F)c(F)cc2CC1 [P007] | < 50 | < 250 | < 1000
CNCCN(C)Cc1ccc(F)cc1C1CCc2cc(F)cc(F)c2CC1 (centres unmarked) [P008] | < 50 | 250 to 2500 | < 1000
CNCCN(C)Cc1cc(F)ccc1C1CCc2cc(F)c(F)cc2CC1 [P009] | < 50 | 250 to 2500 | < 1000
CC[C@H]1CC[C@@H](c2ccccc2CN(C)CCNC)CC1 [P014] | < 50 | 250 to 2500 | < 1000
CCC1CCC(c2ccccc2CN(C)CCNC)CC1 (centres unmarked) [P015] | < 50 | 250 to 2500 | < 1000
CNCCN(C)Cc1ccc(F)cc1C1CCN(c2cccc(C)c2)CC1 [P021] | < 50 | < 250 | < 1000
CNCCN(C)Cc1ccccc1C1CCN(c2cccc(C)c2)CC1 [P022] | < 50 | < 250 | < 1000
CNCCN(C)Cc1ccccc1C1CCC2(CC1)CC(C)(C)CO2 (centres unmarked) [P039] | < 50 | 250 to 2500 | < 1000
CNCCN(C)Cc1ncccc1C1CCN(c2cccc(C(C)(C)C)c2)CC1 [P044] | < 50 | 250 to 2500 | < 1000
CCOC[C@H]1CC[C@H](c2ccccc2CN(C)CCNC)CC1 [P049] | < 50 | < 250 | < 1000
CNCCN(C)Cc1ccccc1[C@H]1CC[C@@]2(CCCCO2)CC1 [P050] | < 50 | 250 to 2500 | < 1000
CNCCN(C)Cc1ccccc1[C@H]1CC[C@]2(CCCCO2)CC1 [P051] | < 50 | 250 to 2500 | < 1000
CNCCN(C)Cc1ccccc1[C@H]1CC[C@]2(CCCOC2)CC1 [P052] | < 50 | 250 to 2500 | < 1000
CNCCN(C)Cc1ccccc1[C@H]1CC[C@@]2(CCCOC2)CC1 [P053] | < 50 | 250 to 2500 | < 1000
CCOCC1CC=C(c2ccccc2CN(C)CCNC)CC1 (centres unmarked) [P054] | < 50 | < 250 | < 1000
CNCCN(C)Cc1ccccc1[C@H]1CC[C@H](OC(C)C)CC1 [P056] | < 50 | 250 to 2500 | < 1000
CNCCN(C)Cc1ccccc1[C@H]1CC[C@@H](OC(C)C)CC1 [P057] | < 50 | 250 to 2500 | < 1000

Structure (SMILES) | IC50 (PRMT1) [nM] | EC30 (MMA in RKO cells) [nM] | IC50 (Toledo cells) [nM]
CNCCN(C)Cc1ncccc1N1CCC(Oc2ccccn2)CC1 [P268] | < 50 |  | 1000 to 5000
CNCCN(C)Cc1ncccc1N1CCC(Oc2cccnc2)CC1 [P269] | < 50 |  | 1000 to 5000
CNCCN(C)Cc1ncccc1N1CCc2ccc(NC(C)=O)cc2CC1 [P270] | < 50 |  | 1000 to 5000
CNCCN(C)Cc1ncccc1C1COc2ccccc2OC1 [P271] | < 50 |  | 1000 to 5000
CNCCN(C)Cc1ncccc1N1CCc2nc(N(C)C)nc(C)c2CC1 [P272] | 50 to 500 |  | 1000 to 5000
CCOC(=O)C1(CC)CCN(c2cccnc2CN(C)CCNC)CC1 [P273] | < 50 |  | 1000 to 5000
CNCCN(C)Cc1ncccc1N1CCC(N2CCC(C(=O)NC)CC2)CC1 [P275] | ≥ 500 |  | ≥ 5000
CNCCN(C)Cc1ncccc1N1CCC(N2CCCC(C(=O)NC)C2)CC1 (centres unmarked) [P276] | ≥ 500 |  | ≥ 5000
CNCCN(C)Cc1ncccc1C1CCN(c2ccnc(C)n2)CC1 [P277] | < 50 |  | < 1000
CNCCN(C)Cc1ncccc1C1CCN(c2nccc(C)n2)CC1 [P278] | < 50 |  | 1000 to 5000
CNCCN(C)Cc1ncccc1C1CCN(c2cc(C)ncn2)CC1 [P279] | < 50 |  | 1000 to 5000
CNCCN(C)Cc1ncccc1N1CCc2nc(C)nc(C)c2CC1 [P280] | < 50 |  | ≥ 5000
CNCCN(C)Cc1ncccc1N1CC[C@H](OC)[C@H](OC)CC1 [P281] | 50 to 500 |  | ≥ 5000
CNCCN(C)Cc1ncccc1C1CCN(c2ccc(S(C)(=O)=O)cc2)CC1 [P284] | < 50 |  | 1000 to 5000
CNCCN(C)Cc1ncccc1C1CCN(c2cccc(C(=O)O)c2)CC1 [P285] | ≥ 500 |  | ≥ 5000
CNCCN(C)Cc1ncccc1N1CCc2cnc(N(C)C)nc2CC1 [P286] | < 50 |  | 1000 to 5000
CNCCN(C)Cc1ncccc1C1CCN(c2ccncn2)CC1 [P287] | < 50 |  | < 1000
CNCCN(C)Cc1ncccc1C1CCN(c2cnccn2)CC1 [P288] | < 50 |  | 1000 to 5000
CNCCN(C)Cc1ncccc1C1CCN(c2ncccn2)CC1 [P290] | < 50 |  | 1000 to 5000

Further lines, with some results ahead:

IC50 (PRMT1) [nM] | Structure (SMILES) | EC30 (MMA in RKO cells) [nM] | IC50 (Toledo cells) [nM]
< 50 | CNCCN(C)Cc1ncccc1N1CCc2cnc(C)nc2CC1 [P291] |  | ≥ 5000
< 50 | CNCCN(C)Cc1ncc(N)nc1C1CCN(c2cccc(C)c2)CC1 [P292, N-((5-amino-3-(1-(m-tolyl)piperidin-4-yl)pyrazin-2-yl)methyl)-N,N′-dimethyl-1,2-ethyle nediamine] |  | < 1000
50 to 500 | CCOCC1(COCC)CCC(c2nc(N)ccc2CN(C)CCNC)CC1 [P293, N1-((6-amino-2-(4,4-bis(ethoxymethyl)cyclohexyl)pyridin-3-yl)methyl)-N1,N2-dimethyle thane-1,2-diamine] |  | < 1000
< 50 | CNCCN(C)Cc1ncccc1C1CCN(c2cccc(C(N)=O)c2)CC1 [P297] |  | ≥ 5000
< 50 | CNCCN(C)Cc1ncccc1C1CCN(c2ccccc2C(N)=O)CC1 [P298] |  | 1000 to 5000
50 to 500 | CCC1(C(=O)NC)CCN(c2cccnc2CN(C)CCNC)CC1 [P300] |  | ≥ 5000
< 50 | CCOC(=O)C1CCN(c2cccnc2CN(C)CCNC)CC1 [P301] |  | 1000 to 5000
< 50 | CNCCN(C)Cc1ncccc1N1CCC(CC(=O)OC)CC1 [P302] |  | 1000 to 5000
< 50 | CNCCN(C)Cc1ncccc1N1CCC(=CC(=O)OC)CC1 [P303] |  | 1000 to 5000
< 50 | CNCCN(C)Cc1ncccc1N1CCc2nc(OC)cc(OC)c2CC1 [P304] |  | 1000 to 5000
< 50 | CNCCN(C)Cc1ncccc1N1CCC(COc2cnc(C)nc2)CC1 [P305] |  | < 1000
50 to 500 | CNCCN(C)Cc1ncccc1N1CCC(COc2ccnc(C)n2)CC1 [P306] |  | 1000 to 5000
< 50 | CNCCN(C)Cc1ncccc1N1CCC(Oc2cnc(C)nc2)CC1 [P313] |  | 1000 to 5000
< 50 | CNCCN(C)Cc1ncccc1N1CCC(Oc2ccnc(C)n2)CC1 [P314] |  | ≥ 5000
≥ 500 | CCC1(C(=O)O)CCN(c2cccnc2CN(C)CCNC)CC1 [P315] |  | ≥ 5000
< 50 | CNCCN(C)Cc1ncccc1C1CCN(c2cnc(C#N)nc2)CC1 [P318] |  | ≥ 5000
< 50 | CNCCN(C)Cc1ncccc1N1CCC(Nc2ccncn2)CC1 [P319] |  | ≥ 5000
< 50 | CNCCN(C)Cc1ncccc1N1CCc2cnc(NC)nc2CC1 [P320] |  | ≥ 5000
< 50 | CNCCN(C)Cc1ncccc1C1CCN(c2cc(C)nc(N)n2)CC1 [P321] |  | 1000 to 5000
< 50 | CNCCN(C)Cc1ncccc1C1CCN(c2ccnc(N)n2)CC1 [P326] |  | 1000 to 5000
50 to 500 | CNCCN(C)Cc1ncccc1N1CCc2nc(SC)nc(O)c2CC1 [P329] |  | ≥ 5000
